Laboratory results from patent publication US8906952B2, “Indole derivative or pharmaceutically acceptable salt thereof, preparation method thereof, and pharmaceutical composition for preventing or treating metabolic diseases containing same as active ingredient” (Korea Research Institute of Bioscience and Biotechnology, priority 2011, dated 2014).

Assays:
ICR mice = test: Acute toxicity assay; type: in vivo; conditions: oral 100, 250 mg/kg; observation over two weeks
Description: In order to investigate acute toxicity of the indole derivatives according to the present invention, mice (20±5 g, Central Lab. Animal Inc.) and rats (235±10 g, Central Lab. Animal Inc.) were used for the acute toxicity assay of compound 1.
A total of […] of 10 ICR mice were orally administered with compound 1 according to the present invention by the dose of 100, 250 mg/kg, respectively.

C57BL/6J mice = test: Oral lipid tolerance test (OLTT), corn oil load; type: in vivo; conditions: for increase of triglyceride concentration: 30 mg/kg; for effect on blood triglyceride concentration (in words): administered to mice
Description: For experiment, 8-week-old male C57BL/6J mice were purchased from Biolink, adapted to environment in bio clean room (Temp. 22±3° C., Humidity 50±10%, Lighting 12 hr interval) for 1 week, and one day before the experiment, fasted for 16 hr. The mice were allowed to freely eat radiation-sterilized solid rodent feed (Harlan, Ind., USA), except for the 16 hr fasting period before the administration of test sample, and were also allowed to freely have a sufficient amount of drinking water which was sterilized in autoclave throughout the test period.
Seven C57BL/6J mice were allocated for solvent control group (V.C., Vehicle Control), and another seven for experimental group (sample group), after which sample was administered as follows.
The normal control group was administered with administration medium (0.5% CMC; carboxy methyl cellulose) only, while the experimental group was orally administered with the compounds of Examples 27 and 49 by 10, 30 mg/kg concentrations, respectively. Before administering the samples to all the animals of the experimental group, the animals were fasted for 16 hr, after which the corresponding sample was orally administered one time, using sonde for oral administration. After 60 min, 6 ml/kg liquid measure of corn oil was orally administered. Blood samples were taken immediately before administration of the corn oil (at 0 hr), and after the corn coil administration, the blood samples were taken directly using heparin-treated capillary tube from retro-orbital sinus at predetermined time (at 2 hr and at 4 hr). The blood samples were centrifuged at 3,000 rpm for 10 min to separate plasma, and the concentration of triglyceride was directly analyzed with automated hematology chemistry analyzer (Hitachi 7150, Japan).

[1] = 10 mg/kg oral, 0 hr (immediately before corn oil)
[2] = 10 mg/kg oral, 2 hr after corn oil
[3] = 10 mg/kg oral, 4 hr after corn oil
[4] = 30 mg/kg oral, 0 hr (immediately before corn oil)
[5] = 30 mg/kg oral, 2 hr after corn oil
[6] = 30 mg/kg oral, 4 hr after corn oil
[7] = after 2 hr of corn oil administration
[8] = after 4 hr of corn oil administration

Row | SMILES | death (ICR mice) | difference on the outside (ICR mice) | Serum TG (C57BL/6J mice; [1]) | Serum TG (C57BL/6J mice; [2]) | Serum TG (C57BL/6J mice; [3]) | Serum TG (C57BL/6J mice; [4]) | Serum TG (C57BL/6J mice; [5]) | Serum TG (C57BL/6J mice; [6]) | increase of triglyceride concentration (C57BL/6J mice; [7]) | increase of triglyceride concentration (C57BL/6J mice; [8]) | effect on blood triglyceride concentration (in words) (C57BL/6J mice)
1 | CC(C)N(NC(=O)c1ccccc1)C(=O)/C=C/c1cn(C(=O)OC(C)(C)C)c2ccccc12 [Example 1, (E)-tert-butyl 3-(3-(2-benzoyl-1-isopropylhydrazinyl)-3-oxoprop-1-enyl)-1H-indole-1-carboxylate] | no death | nor did the groups show any specific difference on the outside |  |  |  |  |  |  |  |  | 
2 | CC(C)=CCn1cc(/C=C/C(=O)N(NC(=O)c2ccccc2)C(C)C)c2ccccc21 [Example 27, (E)-N′-isopropyl-N′-(3-(1-(3-methylbut-2-enyl)-1H-indol-3-yl)acryloyl)benzohydrazide] |  |  | 62.8 ± 20.6 mg/dL | 171.0 ± 61.7 mg/dL | 83.0 ± 22.8 mg/dL | 45.4 ± 7.2 mg/dL | 104.2 ± 40.3 mg/dL | 79.8 ± 37.3 mg/dL | approximately 1.9 fold | approximately 1.1 fold | superior effect of decreasing blood triglyceride concentration
3 | CC(C)=CCn1cc(/C=C/C(=O)N(NC(=O)c2ccc(F)cc2)C(C)C)c2ccccc21 [Example 49, (E)-4-fluoro-N′-isopropyl-N′-(3-(1-(3-methylbut-2-enyl)-1H-indol-3-yl)acryloyl)benzohydrazide] |  |  | 78.8 ± 23.2 mg/dL | 90.8 ± 28.2 mg/dL | 43.2 ± 12.9 mg/dL | 45.8 ± 6.1 mg/dL | 86.4 ± 11.1 mg/dL | 50.0 ± 11.9 mg/dL | ~2.3 fold | ~1.8 fold | superior effect of decreasing blood triglyceride concentration
